# In ChEMBL document CHEMBL1127139, “Synthesis and -lactamase inhibitory activity of 6-hydroxyethyl thiaclavulanic acid” (Bioorg Med Chem Lett, 1993):
# Assays:
# [1] = target: Beta-lactamase (Enterobacter cloacae) (UniProt P05364); experiment: Tested for inhibitory activity against beta-lactamase (groupI) Enterobacter cloacae P99 in presence of ampicillin + 80 ug/mL of compound
# [2] = target: Beta-lactamase TEM (Escherichia coli) (UniProt P62593); experiment: Tested for inhibitory activity against beta-lactamase (groupIII) Escherichia coli RPI in presence of ampicillin + 80 ug/mL of compound
# Chain of Beta-lactamase TEM (Escherichia coli) (P62593 whole entry): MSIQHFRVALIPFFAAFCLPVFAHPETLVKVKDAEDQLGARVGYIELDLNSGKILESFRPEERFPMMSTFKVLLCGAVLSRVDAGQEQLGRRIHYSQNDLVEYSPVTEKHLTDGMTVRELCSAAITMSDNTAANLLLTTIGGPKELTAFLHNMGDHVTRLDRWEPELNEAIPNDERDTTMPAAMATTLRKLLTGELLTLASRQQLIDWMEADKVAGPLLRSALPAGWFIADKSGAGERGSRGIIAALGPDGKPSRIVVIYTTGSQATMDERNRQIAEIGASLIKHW
# [3] = target: T1, Beta-lactamase OXA-9 (Klebsiella aerogenes) (UniProt P0A3M4); experiment: Tested for inhibitory activity against beta-lactamase (groupIV) Klebsiella aerogenes 1082E in presence of ampicillin + 20 ug/mL of compound
# T1 sequence (whole entry): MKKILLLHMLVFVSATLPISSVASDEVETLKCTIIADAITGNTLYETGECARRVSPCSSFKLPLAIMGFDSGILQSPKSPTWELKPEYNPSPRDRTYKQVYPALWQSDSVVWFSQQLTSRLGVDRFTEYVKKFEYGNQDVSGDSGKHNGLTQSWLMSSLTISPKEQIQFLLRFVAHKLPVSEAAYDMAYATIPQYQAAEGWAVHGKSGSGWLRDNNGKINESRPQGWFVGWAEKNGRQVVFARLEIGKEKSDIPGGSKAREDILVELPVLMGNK
# [4] = target: Beta-lactamase OXA-1 (Escherichia coli) (UniProt P13661); experiment: Tested for inhibitory activity against beta-lactamase (groupV) Escherichia coli R57b in presence of ampicillin + 20 ug/mL of compound
# Chain of Beta-lactamase OXA-1 (Escherichia coli) (P13661 whole entry): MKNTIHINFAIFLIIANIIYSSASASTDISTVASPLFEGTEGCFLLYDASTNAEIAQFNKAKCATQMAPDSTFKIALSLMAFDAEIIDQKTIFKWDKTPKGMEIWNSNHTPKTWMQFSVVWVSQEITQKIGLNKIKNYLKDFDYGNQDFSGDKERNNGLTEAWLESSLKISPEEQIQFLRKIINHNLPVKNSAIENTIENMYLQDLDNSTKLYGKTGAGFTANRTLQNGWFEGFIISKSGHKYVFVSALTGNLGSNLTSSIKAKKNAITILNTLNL
# [5] = target: Beta-lactamase TEM (Escherichia coli) (UniProt P62593); experiment: Tested for inhibitory activity against beta-lactamase (groupIII) Escherichia coli RPI in presence of ampicillin + 20 ug/mL of compound
# [6] = target: Beta-lactamase OXA-1 (Escherichia coli) (UniProt P13661); experiment: Tested for inhibitory activity against beta-lactamase (groupV) Escherichia coli RGN in presence of ampicillin + 20 ug/mL of compound
# [7] = target: Beta-lactamase (Staphylococcus aureus) (UniProt P00807); experiment: Tested for inhibitory activity against beta-lactamase (groupII) staphylococcus aureus 39/2 strain in presence of ampicillin + 80 ug/mL of compound
# [8] = target: Beta-lactamase OXA-1 (Escherichia coli) (UniProt P13661); experiment: Tested for inhibitory activity against beta-lactamase (groupV) Escherichia coli RGN in presence of ampicillin + 80 ug/mL of compound
# [9] = target: Beta-lactamase OXA-1 (Escherichia coli) (UniProt P13661); experiment: Tested for inhibitory activity against beta-lactamase (groupV) Escherichia coli R57b in presence of ampicillin + 80 ug/mL of compound
# [10] = target: Beta-lactamase (Staphylococcus aureus) (UniProt P00807); experiment: Tested for inhibitory activity against beta-lactamase (groupII) staphylococcus aureus 39/2 strain in presence of ampicillin + 20 ug/mL of compound
# [11] = target: T1, Beta-lactamase OXA-9 (Klebsiella aerogenes); experiment: Tested for inhibitory activity against beta-lactamase (groupIV) Klebsiella aerogenes 1082E in presence of ampicillin + 80 ug/mL of compound
# [12] = target: Beta-lactamase TEM (Escherichia coli) (UniProt P62593); experiment: Tested for inhibitory activity against beta-lactamase (groupIII) Escherichia coli RPI
# [13] = target: Beta-lactamase (Staphylococcus aureus) (UniProt P00807); experiment: Tested for inhibitory activity against beta-lactamase (groupII) staphylococcus aureus 39/2 strain
# [14] = target: T1, Beta-lactamase OXA-9 (Klebsiella aerogenes); experiment: Tested for inhibitory activity against beta-lactamase (groupIV) Klebsiella aerogenes 1082E
# [15] = target: Beta-lactamase OXA-1 (Escherichia coli) (UniProt P13661); experiment: Tested for inhibitory activity against beta-lactamase (groupV) Escherichia coli R57b
# [16] = target: Beta-lactamase (Enterobacter cloacae) (UniProt P05364); experiment: Tested for inhibitory activity against beta-lactamase (groupI) Enterobacter cloacae P99
# [17] = target: Beta-lactamase OXA-1 (Escherichia coli) (UniProt P13661); experiment: Tested for inhibitory activity against beta-lactamase (groupV) Escherichia coli RGN
# Chain of Beta-lactamase (Enterobacter cloacae) (P05364 21-381 limits assumed): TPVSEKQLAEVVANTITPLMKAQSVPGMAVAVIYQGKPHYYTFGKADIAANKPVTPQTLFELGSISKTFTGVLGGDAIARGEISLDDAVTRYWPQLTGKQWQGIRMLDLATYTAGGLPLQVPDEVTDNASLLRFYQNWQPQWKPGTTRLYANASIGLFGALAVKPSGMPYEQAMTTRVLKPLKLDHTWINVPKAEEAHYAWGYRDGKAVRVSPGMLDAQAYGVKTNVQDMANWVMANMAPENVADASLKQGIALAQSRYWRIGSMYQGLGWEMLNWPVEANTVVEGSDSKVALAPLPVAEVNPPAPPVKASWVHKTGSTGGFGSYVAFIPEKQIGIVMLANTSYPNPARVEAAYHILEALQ
MIC [1] [µg/mL],MIC [2] [µg/mL],MIC [3] [µg/mL],MIC [4] [µg/mL],MIC [5] [µg/mL],MIC [6] [µg/mL],MIC [7] [µg/mL],MIC [8] [µg/mL],MIC [9] [µg/mL],MIC [10] [µg/mL],MIC [11] [µg/mL],MIC [12] [µg/mL],MIC [13] [µg/mL],MIC [14] [µg/mL],MIC [15] [µg/mL],MIC [16] [µg/mL],MIC [17] [µg/mL],Structure (SMILES)
> 100,> 100,> 100,6.25,> 100,6.25,< 0.39,3.12,1.56,< 0.39,> 100,,,,,,,C[C@H](O)[C@H]1C(=O)N2[C@@H]1S/C(=C\CO)[C@@H]2C(=O)O
,,,,,,,,,,,> 100,1.56,> 100,100,> 100,12.5,CC1(C)S[C@@H]2[C@H](NC(=O)[C@H](N)c3ccccc3)C(=O)N2[C@H]1C(=O)O
